Literature values as cited in US20070250301A1, “Normalizing cell assay data for models” (Cytokinetics, Inc., A Delaware Corporation, priority 2006, published 2007).
Numbered stars: 1 amine (or outer) side, 2 acyl side, 3 side chain; on linkers, the order of the positions; unused ones are H or OH. Bridge positions count the residues as written; N and C are the ends. Square brackets hold non-standard residues; d marks the D form. Peptide text beside a SMILES is read from it. Trp(2-yl) = O=C([C@H](Cc1c([*:3])[nH]c2ccccc12)N[*:1])[*:2]; Leu(4R-OH,5-OH) = C[C@](O)(CO)C[C@H](N)C(=O)O; cisHyp = O=C(O)[C@@H]1C[C@H](O)CN1

Columns and labels:
[1] = system: filamentous F actin around canaliculi and tight junctions
bile flow = details: rats; resulting in cholestatic injury

Structure (SMILES) | effect on filamentous F actin [1] | effect on bile flow (bile flow)
C[C@@H]1NC(=O)[C@H](C[C@@](C)(O)CO)NC(=O)[C@@H]2Cc3c([nH]c4ccccc34)SC[C@H](NC(=O)[C@@H]([C@H](C)O)NC1=O)C(=O)N1C[C@@H](O)C[C@H]1C(=O)N[C@@H](C)C(=O)N2 [phalloidin] (cyclo(A[dT]C[cisHyp]A[Trp(2-yl)][Leu(4R-OH,5-OH)]); thioether 3-6) | increase in filamentous F actin | –
C=C1[C@@H](C)[C@H]2[C@H](Cc3ccccc3)NC(=O)[C@]23OC(=O)/C=C/[C@H](O)CCC[C@@H](C)C/C=C/[C@H]3[C@@H]1O [cytochalasin B] | – | prompt arrest of bile flow
